Results from patent US6951647B2, “T cell binding ligand peptides and method of inducing a cellular immune response” (Cel-Sci Corporation, priority 2001, dated 2005).
Where “and” joins values, the source holds several entries; their conditions need not be identical. Equal values may be shown once. Marks after values point to notes of the source that are not given here.

Experiments:
E Clade = test: ELISA cross clade recognition by sera of immunized mice, E Clade; type: in vivo; settings: day 63 test bleeding, sera 1:200, individual mouse
Description: (§1) Mice in groups (5-10 animals per group as designated) are immunized with the LEAPS constructs (25 μg/dose) of SEQ ID NO's:37, 38 and 39, in 0.2 mL emulsified 1:1 with adjuvant (Seppic's ISA-51 or Corixa's microfluidized MPL S/E) on days 0 and 14. Mice are evaluated by Delayed Type of Hypersensitivity (DTH) by inoculation on day 26 with 20 μl of a solution of saline or mH (SEQ ID NO:6) (25 μg in saline) in the left or right ear respectively. The DTH response is determined by measurement of the ear thickness 48 hours later and expressed as increase in ear thickness (mm) of experimental ear compared to that of the control ear. Individual animal sera are collected for measurement of antibody on day 28, 42, 63 and 77. Sera from individual animals and group pools are evaluated for specific anti-mH antibody, for total antibody, IgG1, IgG2a and IgG3 antibody isotype and cross clade titer at selected time points as indicated.
(§2) The mouse sera for the ELISA was used at a dilution of 1:200. Again, clearly, the construct provides higher signals indicative of higher levels of the antibodies that recognized other clades besides the parental one (Clade B) of mH.
(§3) A cross clade analysis for pools of day 42 test bleedings from the same groups as used in Table 3, were obtained and the results are shown in Table 4.

B Clade = test: ELISA cross clade recognition by sera of immunized mice, B Clade; type: in vivo; settings: day 63 test bleeding, sera 1:200, individual mouse
Description: as §1, §2, §3

C Clade = test: ELISA cross clade recognition by sera of immunized mice, C Clade; type: in vivo; settings: day 63 test bleeding, sera 1:200, individual mouse
Description: as §1, §2, §3

D Clade = test: ELISA cross clade recognition by sera of immunized mice, D Clade; type: in vivo; settings: day 63 test bleeding, sera 1:200, individual mouse
Description: as §1, §2, §3

[1] = tested on: modified HGP-30 (mH, SEQ ID NO:6); test: Isotype analysis (ELISA) of anti-mH antibody in sera of immunized mice; type: in vivo; set-up: IgG1 / IgG2a / IgG2b / IgG3: unit not given here; settings: ELISA signal, day 42 test bleeding
Description: as §1
The results of an isotype analysis of day 42 test bleedings with G′-mH (SEQ ID NO:37), G-mH (SEQ ID NO:38), J-mH (SEQ ID NO:39), F-mH (SEQ ID NO:40) and F-HGP-30 (SEQ ID NO:41), are shown in Table 1.
An isotype analysis for pools of day 28 test bleedings G-mH, G′-mH and m-HGP-30/KLH using either MPL S/E or ISA51 as adjuvant, are shown in Table 3.

modified HGP-30 [2] = test: ELISA antibody screening of sera of immunized mice on modified HGP-30; type: in vivo; settings: day 63 test bleeding, sera 1:200, individual mouse
Description: as §1, with “indicated. […]” for “indicated.”

modified HGP-30 [3] = test: Delayed Type Hypersensitivity (DTH) ear thickness response with antisera depletion of CD4 or CD8 cells; type: in vivo, Mice
Description: as §1
Select immunoglobulin preparations were obtained from Dr. Stephen Hoffmann, Malaria Program, U.S. Navy. […] This allows one to determine some parts of the nature of various cellular (e.g., T-cell) involvement in the early stage of immune system response with the LEAPS peptide-constructs. It is recognized, however, that this is only a temporary event since new cells are continuously being developed from stem cells and the animals become resistant to the reagents.
The animals are pretreated with the antisera as indicated for 5 days before the initial immunization with peptide-construct having SEQ ID NO:37 or SEQ ID NO:39 on […]. No pretreatment is done before the booster immunization on day 14 or DTH on day 26-28. The mice are then inoculated with the test antigen or saline (control) on day 26 in the left and right ears, respectively, and the DTH response is measured on day 28. The difference between the values for the test and saline control ears is calculated for each group of five animals along with the standard error of the mean (sem) and the results are plotted (see FIG. 1). Also shown in FIG. 1 are values for the untreated animals and animals immunized on day 14 only.
The DTH (Delayed Type Hypersensitivity) data is statistically significant with a t-test of 0.05 for SEQ ID NO:39 and anti-CD8. The DTH for pretreatment of SEQ ID NO:37 immunized mice with anti-CD4 was just above the cutoff limit for statistical significance due to a weaker DTH response and small group size.

[4] = Day 14 Injection Only (immunized with construct on day 14 only), average of group of 5 mice
[5] = Treatment Anti CD4, daily for 5 days before immunization, average of group (5 mice)
[6] = Treatment Anti CD8, daily for 5 days before immunization, average of group of 5 mice
[7] = Treatment None, average of group (5 mice), ISA 51 adjuvant
[8] = Treatment Normal rat IgG, daily for 5 days before immunization, average of group (5 mice)

| Substance | ELISA signal on E Clade (E Clade) | ELISA signal on B Clade (B Clade) | ELISA signal on C Clade (C Clade) | ELISA signal on D Clade (D Clade) | IgG1 ([1]; group Average) | IgG2a ([1]; group Average) | IgG2b ([1]; group Average) | IgG3 ([1]; group Average) | IgG1 ([1]; individual mouse) | IgG2a ([1]; individual mouse) | IgG2b ([1]; individual mouse) | IgG3 ([1]; individual mouse) | ELISA signal on modified HGP-30 (modified HGP-30 [2]) | other results |
| --- | --- | --- | --- | --- | --- | --- | --- | --- | --- | --- | --- | --- | --- | --- |
| DLL KNG ERI EKV EGG GAT LYS VHQ RID VKD TKE ALE KIE EEQ NKS (DGQEEKAGVVSTGLIGGGQYSWFVNGTF) [SEQ ID NO: 59, Peptide J linked by GGG spacer to modified HGP-30 (mH)] | 2.431 and 1.565 and 0.789 and 0.788 and 0.554 and 0.722 and 0.142 and 1.379 and 2.379 | 0.262 and 0.000 (6×) and 0.575 and 0.026 | 2.421 and 1.699 and 1.295 and 0.969 and 0.665 and 0.780 and 0.171 and 1.370 and 2.322 | 0.120 and 0.004 and 0.196 and 0.000 (6×) | 0.717 | 0.046 | 0.019 | 0.070 | 0.002 and 1.603 and 0.014 and 2.023 and 2.199 and 0.053 and 0.057 and 0.505 and 0.000 | 0.002 (2×) and 0.027 and 0.000 (2×) and 0.299 and 0.060 and 0.014 and 0.011 | 0.002 and 0.014 and 0.000 (5×) and 0.113 and 0.039 | 0.017 and 0.032 and 0.009 and 0.227 and 0.324 and 0.000 (2×) and 0.003 and 0.016 | 0.440 and 0.011 and 0.753 and 0.905 and 0.793 and 0.100 and 0.035 and 0.000 (2×) | Left Ear thickness, inoculated day 26 with HGP-30, measured after 48 hours (modified HGP-30 [3]; [4]): 0.254 mm; Right Ear thickness, inoculated day 26 with saline, measured after 48 hours (modified HGP-30 [3]; [4]): 0.231 mm; DTH % increase (L-R)/R (modified HGP-30 [3]; Day 14 Injection Only, average of group of 5 mice): 10.00%; Left Ear thickness, inoculated day 26 with HGP-30, measured after 48 hours (modified HGP-30 [3]; [5]): 0.288 mm; Right Ear thickness, inoculated day 26 with saline, measured after 48 hours (modified HGP-30 [3]; [5]): 0.240 mm; DTH % increase (L-R)/R (modified HGP-30 [3]; Treatment Anti CD4, average of group (5 mice)): 20.00%; Left Ear thickness, inoculated day 26 with HGP-30, measured after 48 hours (modified HGP-30 [3]; [6]): 0.233 mm; Right Ear thickness, inoculated day 26 with saline, measured after 48 hours (modified HGP-30 [3]; [6]): 0.220 mm; DTH % increase (L-R)/R (modified HGP-30 [3]; Treatment Anti CD8, average of group of 5 mice): 6.20%***; DTH % increase (L-R)/R (modified HGP-30 [3]; Treatment None, average of group (5 mice)): 29.30%; Left Ear thickness, inoculated day 26 with HGP-30, measured after 48 hours (modified HGP-30 [3]; [7]): 0.288 mm; Right Ear thickness, inoculated day 26 with saline, measured after 48 hours (modified HGP-30 [3]; [7]): 0.222 mm; Left Ear thickness, inoculated day 26 with HGP-30, measured after 48 hours (modified HGP-30 [3]; [8]): 0.296 mm; Right Ear thickness, inoculated day 26 with saline, measured after 48 hours (modified HGP-30 [3]; [8]): 0.227 mm; DTH % increase (L-R)/R (modified HGP-30 [3]; Treatment Normal rat IgG, average of group (5 mice)): 30.60%; Type of cells required for a DTH response (modified HGP-30 [3]; cell specific antisera as depletion reagent for the primary immunization (FIG. 1)): requires the presence and presumably activation of CD8+ but not CD4+ cells |
| VQG EES NDK GGG YSV HQR IDV KDT KEA LEK IEE EQN KSK KKA (DLLKNGERIEKVEGGGSTAPPAHGV) [SEQ ID NO: 63, Peptide F linked by GGG spacer to HGP-30] | 0.000 (7×) and 1.565 and 0.042 and 1.010 | 0.000 (6×) and 0.282 and 1.977 and 0.667 and 0.011 | 0.000 (5×) and 0.135 and 0.010 and 1.878 and 0.650 and 1.051 | 0.000 (5×) and 0.012 and 0.005 and 1.941 and 0.386 and 0.050 | 0.652 | 0.071 | 0.024 | 0.044 | 0.761 and 0.181 and 0.649 and 0.417 and 0.022 and 1.379 and 0.030 and 0.349 and 0.717 and 2.018 | 0.051 and 0.018 and 0.020 and 0.007 and 0.000 (2×) and 0.048 and 0.026 and 0.192 and 0.350 | 0.003 and 0.001 and 0.007 and 0.005 and 0.006 and 0.028 and 0.047 and 0.000 and 0.027 and 0.117 | 0.040 and 0.006 and 0.104 and 0.173 and 0.009 and 0.013 and 0.007 and 0.000 and 0.058 and 0.028 | 0.065 and 0.216 and 0.128 and 0.000 and 0.110 and 0.017 and 0.201 and 0.623 and 0.747 and 0.013 | – |
